Values joined by “and” are separate entries in the source; they are usually repeats but may differ in a detail not shown here. Identical values can stand only once. Like-named read-outs stand apart in the source and are kept apart here. One block for each compound: values may come before it.
Legend:
[1] = tested on: Plasmodium falciparum strain 3D7; experiment: Antimalarial activity, whole-cell SYBR Green I assay; type: cell-based; conditions: read-out: Antimalarial activity (IC50) Mean
Description: Antimalarial activity of compounds IIa and IIb can be accessed by exposing a P. falciparum strain (see Example 5), such as strain 3D7, which is chloroquine and mefloquine sensitive, to said compounds, and by using the SYBR Green I assay as described in Machado et. al, Ann. Clin. Med. Microbio. 2016, 2, 1010. Asynchronous parasites are cultivated for 72 hours in the presence of each compound. Fluorescence intensity was measured with a multi-mode microplate reader (Triad, Dynex Technologies). Compounds IIa and IIb were active against the malaria parasite (see Example 5, Table 1). Compounds were dissolved in RPMI-1640 with L-glutamine (BiowestTM) supplemented with […] (GibcoTM), herein after referred to as RPMIc, to obtain an intermediate solution of 100 μM. Laboratory-adapted P. falciparum strain 3D7, a chloroquine and mefloquine sensitive strain, was continuously cultured as described elsewhere (Machado et. al, Ann. Clin. Med. Microbio. 2016, 2, 1010). Parasites were cultivated in 5% haematocrit, 37° C. and atmosphere with 5% of CO2. […] (GibcoTM) at 0.5% was used as a substitute of human serum in the culture medium. Staging and parasitemia were determined by light microscopy of Giemsa-stained thin blood smears. Anti-malarial activity was determined using the SYBR Green I assay (Machado et. al, Ann. Clin. Med. Microbio. 2016, 2, 1010 and Lobo et. al, […]. 2018, 17, 1). Briefly, asynchronous parasites were cultivated for 72 hours in the presence of a 1:3 serial dilution of each compound.

[2] = tested on: MCF7 human breast adenocarcinoma; experiment: Antitumoral effect, MTS metabolism assay, MCF7; type: cell-based; conditions: 72 hours
[3] = tested on: PC3 human prostate adenocarcinoma; experiment: Antitumoral effect, MTS metabolism assay, PC3; type: cell-based; conditions: 72 hours
U251 human glioblastoma = experiment: Antitumoral effect, MTS metabolism assay, U251; type: cell-based; conditions: U-251, 72 hours
[4] = tested on: HCT116 human colorectal carcinoma; experiment: Antitumoral effect, MTS metabolism assay, HCT116; type: cell-based; conditions: HCT-116, 72 hours
[5] = tested on: AML12 murine immortalized hepatocyte cell line; experiment: Toxicity for non-tumoral cells, MTS assay, AML12; type: cell-based; conditions: for IC50: Mus musculus, non-tumorigenic cell line, 72 hours, MTS; for Selectivity (IC50Compound II/IC50 Doxorubicin): ratio to doxorubicin
[6] = Fluorescence quantum yields determination; type: physicochemical; conditions: water with 30% DMSO; standard fluorescein in 0.1 M sodium hydroxide
HT-29 cells = conditions: 2 mg/kg intravenous, eight injections
[7] = chloroquine-sensitive 3D7 strain, asynchronous parasites, 72 hours

- IC50 [2]: 170 nM
- IC50 [3]: 120 nM
- IC50 (U251 human glioblastoma): 11 nM
- IC50 [4]: 50 nM
- fluorescence quantum yield [6]: 2.8%
SMILES: COc1cccc2c1C(=O)c1c(O)c3c(c(O)c1C2=O)C[C@@](O)(C(=O)CO)C[C@@H]3O[C@H]1C[C@H](N)[C@H](O)[C@H](C)O1 [Doxorubicin, doxorubicin, reference compound]
- reduction of the tumour mass versus negative control and vehicle control (HT-29 cells): higher reduction of the tumour mass
- IC50 [5]: 170 nM

- IC50 [2]: 1650 nM
- IC50 [3]: 1370 nM
- IC50 (U251 human glioblastoma): 250 nM
- IC50 [4]: 5110 nM
SMILES: COc1cccc2c1C(=O)c1c(O)c3c(c(O)c1C2=O)C[C@](O)(C(=O)CO)C[C@H]3O[C@@H]1CC(NC(=O)OC2CCCC3(C2)OOC2(OO3)C3CC4CC(C3)CC2C4)[C@@H](O)[C@@H](C)O1 (stereo partly shown) [IIc]
- IC50 [5]: 1830 nM
- Selectivity (IC50Compound II/IC50 Doxorubicin) [5]: 10 and 10.64

Continued, compound first:

SMILES: CC(C)(C)OC(=O)N1CCN(C(=O)OC2CCCC3(C2)OOC2(OO3)C3CC4CC(C3)CC2C4)CC1 (stereo not shown) [Compound IIb]
- IC50 [1, 7]: 11.4 nM

SMILES: COc1cccc2c1C(=O)c1c(O)c3c(c(O)c1C2=O)C[C@](O)(C(=O)CO)C[C@H]3O[C@@H]1CC(NC(=O)OCC2=CCCCC23OOC2(OO3)C3CC4CC2CC(O)(C4)C3)[C@@H](O)[C@@H](C)O1 (stereo partly shown) [Compound IIe]
- IC50 [2]: 8450 nM
- IC50 [3]: 14300 nM
- IC50 (U251 human glioblastoma): 13200 nM
- IC50 [4]: 3520 nM
- IC50 [5]: 30500 nM
- Selectivity (IC50Compound II/IC50 Doxorubicin) [5]: 180 and 179

SMILES: COc1cc(NC(C)CCCNC(=O)OC2CCCC3(C2)OOC2(OO3)C3CC4CC(C3)CC2C4)c2ncccc2c1 (stereo not shown) [Compound IIa]
- IC50 [1, 7]: 32.8 nM

SMILES: CCN(CC)CCCC(C)Nc1ccnc2cc(Cl)ccc12 (stereo not shown) [CQ, chloroquine, reference compound]
- IC50 ([1]; 3D7, 72 h): 19.4 nM

From US20250064840A1, “DRUG DELIVERY SYSTEMS BASED ON ENDOPEROXIDES USEFUL IN DIAGNOSIS AND THERAPY, AND METHODS THEREOF” (FACULDADE DE FARMÁCIA DA UNIVERSIDADE DE LISBOA, priority 2021, published 2025)
